Data reported in the NIST ThermoML archive (doi:10.1021/je034017j).

What was measured:
[1] = xn = mol fraction of the nth substance listed; conditions: 101 kPa, Liquid
[2] = Liquid; for viscosity: 101.33 kPa; for mass density: 101 kPa

CCCCCCC(=O)OC [methyl heptanoate] + CCCCCCO
[1]
Conditions	kinematic viscosity [m2/s]	mass density [kg/m3]
293.15 K, x1 = 0.0702	5.11e-06	824.02
293.15 K, x1 = 0.1168	4.4e-06	827.4
293.15 K, x1 = 0.189	3.59e-06	832.46
293.15 K, x1 = 0.3018	2.76e-06	840.04
293.15 K, x1 = 0.3966	2.31e-06	846.13
293.15 K, x1 = 0.4898	1.99e-06	851.87
293.15 K, x1 = 0.594	1.74e-06	858.04
293.15 K, x1 = 0.7085	1.52e-06	864.51
293.15 K, x1 = 0.7917	1.42e-06	869.04
293.15 K, x1 = 0.8937	1.32e-06	874.45
293.15 K, x1 = 0.937	1.29e-06	876.69
293.15 K, x1 = 1	1.26e-06	879.96
303.15 K, x1 = 0.0753	3.81e-06	816.9
303.15 K, x1 = 0.12	3.35e-06	819.99
303.15 K, x1 = 0.1919	2.79e-06	824.84
303.15 K, x1 = 0.2963	2.24e-06	831.61
303.15 K, x1 = 0.4003	1.87e-06	838.05
303.15 K, x1 = 0.4934	1.64e-06	843.6
303.15 K, x1 = 0.5979	1.45e-06	849.6
303.15 K, x1 = 0.6849	1.32e-06	854.38
303.15 K, x1 = 0.8004	1.2e-06	860.53
303.15 K, x1 = 0.8676	1.15e-06	864
303.15 K, x1 = 0.9415	1.11e-06	867.77
303.15 K, x1 = 1	1.09e-06	870.73
313.15 K, x1 = 0.064	3.05e-06	808.63
313.15 K, x1 = 0.1198	2.62e-06	812.36
313.15 K, x1 = 0.1968	2.21e-06	817.35
313.15 K, x1 = 0.2986	1.83e-06	823.7
313.15 K, x1 = 0.3995	1.56e-06	829.76
313.15 K, x1 = 0.5299	1.32e-06	837.23
313.15 K, x1 = 0.6009	1.22e-06	841.13
313.15 K, x1 = 0.6925	1.12e-06	846.03
313.15 K, x1 = 0.8022	1.04e-06	851.72
313.15 K, x1 = 0.872	9.99e-07	855.24
313.15 K, x1 = 0.9368	9.78e-07	858.5
313.15 K, x1 = 1	9.55e-07	861.65

CCCCCCCC [octane]
[2]
Conditions	mass density [kg/m3]	viscosity [mPa·s]
283.15 K	–	0.614
293.15 K	702.54	0.542
298.15 K	–	0.508
303.15 K	694.35	0.483
313.15 K	686.12	0.43

CCCCCCO [hexan-1-ol]
[2]
Conditions	mass density [kg/m3]	viscosity [mPa·s]
293.15 K	818.84	5.412
298.15 K	–	4.596
303.15 K	811.56	3.964
313.15 K	804.28	2.966

CCCCCCO [hexan-1-ol] + CCCCCCC(=O)OC
[1], x2 = 0
Conditions	kinematic viscosity [m2/s]	mass density [kg/m3]
293.15 K	6.61e-06	818.84
303.15 K	4.88e-06	811.56
313.15 K	3.69e-06	804.28

CCCCC(=O)OC [methyl pentanoate]
[2]
Conditions	mass density [kg/m3]	viscosity [mPa·s]
283.15 K	–	0.816
293.15 K	889.75	0.712
298.15 K	–	0.661
303.15 K	879.51	0.623
313.15 K	869.32	0.551

CCCCCCCC [octane] + CCCCCCO
[1], x1 = 1
Conditions	kinematic viscosity [m2/s]	mass density [kg/m3]
293.15 K	7.71e-07	702.54
303.15 K	6.96e-07	694.35
313.15 K	6.27e-07	686.12

CCCCCCC(=O)OC [methyl heptanoate]
[2]
Conditions	mass density [kg/m3]	viscosity [mPa·s]
283.15 K	–	1.32
293.15 K	879.96	1.112
298.15 K	–	1.023
303.15 K	870.73	0.95
313.15 K	861.65	0.823

CCCCCCO [hexan-1-ol] + CCCCC(=O)OC
[1], Capillary tube (Ostwald / Ubbelohde) method, x2 = 0
Conditions	kinematic viscosity [m2/s]
293.15 K	6.609e-06
303.15 K	4.885e-06
313.15 K	3.688e-06

[1], x2 = 0
Conditions	mass density [kg/m3]
293.15 K	818.84
303.15 K	811.56
313.15 K	804.28
